Assay results as given in patent publication US20190185479A1, “BICYCLIC NITROGENATED HETEROCYCLIC COMPOUND” (MITSUBISHI TANABE PHARMA CORPORATION, priority 2016, published 2019).

How the values were obtained:
Format in all cases: biochemical
hPDE8B = target: T1, hPDE8B (Homo sapiens, UniProt O95263); experiment: PDE8 inhibition assay (IC50), Experimental Example 3; settings: for IC50: hPDE8B, read-out: PDE inhibition assay IC50, PDE8; for inhibition at 1 µM: at 1 μmol/L
T1 construct: purchased SB Drug Discovery
How it was run: (§1)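 Recombinant human enzymes incubated with compound and 3 nmol/L cAMP (final) in Tris-HCl pH 7.5 buffer with MgCl2, BSA, DTT, 2% DMSO final, 60 min at room temperature. Residual cAMP measured by TR-FRET (LANCE Ultra), reaction stopped with 0.5 mmol/L IBMX. IC50 from inhibition relative to no-compound (0%) and no-enzyme (100%) controls.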

Human PDE7B (hPDE7B) = target: T2, Human PDE7B (hPDE7B) (Homo sapiens, UniProt Q9NP56); experiment: Measurement of PDE7 inhibitory activity (Experimental Example 1; residual cAMP, LANCE Ultra cAMP TR-FRET); settings: cAMP 3 nmol/L, room temperature 60 minutes
T2 construct: made in house; host or cells: COS-7 cells
How it was run: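 hPDE7B from transfected COS-7 cells reacted with 3 nmol/L cAMP (final) and compound (2% DMSO) in 50 mmol/L Tris-HCl pH 7.5, 1 mmol/L MgCl2, 0.1% BSA, 0.5 mmol/L DTT, 60 min at room temperature. Reaction stopped with IBMX; residual cAMP measured by TR-FRET. Inhibition scaled between no-compound and no-enzyme controls.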

hPDE4D = target: T3, hPDE4D (Homo sapiens, UniProt Q08499); experiment: PDE4 inhibition assay (IC50), Experimental Example 3; settings: for IC50: hPDE4D, read-out: PDE inhibition assay IC50, PDE4; for inhibition at 10 µM: at 10 μmol/L
T3 construct: purchased SB Drug Discovery
How it was run: as §1

hPDE10A = hPDE10A (Homo sapiens, UniProt Q9Y233); experiment: PDE10 inhibition assay (IC50), Experimental Example 3; settings: for IC50: hPDE10A, read-out: PDE inhibition assay IC50, PDE10; for inhibition at 10 µM: at 10 μmol/L
How it was run: as §1

[1] = read-out: inhibition rate (%) at prescribed concentration, PDE4
[2] = read-out: inhibition rate (%) at prescribed concentration, PDE10
[3] = read-out: inhibition rate (%) at prescribed concentration, PDE8

T3 sequence (Q08499 whole entry): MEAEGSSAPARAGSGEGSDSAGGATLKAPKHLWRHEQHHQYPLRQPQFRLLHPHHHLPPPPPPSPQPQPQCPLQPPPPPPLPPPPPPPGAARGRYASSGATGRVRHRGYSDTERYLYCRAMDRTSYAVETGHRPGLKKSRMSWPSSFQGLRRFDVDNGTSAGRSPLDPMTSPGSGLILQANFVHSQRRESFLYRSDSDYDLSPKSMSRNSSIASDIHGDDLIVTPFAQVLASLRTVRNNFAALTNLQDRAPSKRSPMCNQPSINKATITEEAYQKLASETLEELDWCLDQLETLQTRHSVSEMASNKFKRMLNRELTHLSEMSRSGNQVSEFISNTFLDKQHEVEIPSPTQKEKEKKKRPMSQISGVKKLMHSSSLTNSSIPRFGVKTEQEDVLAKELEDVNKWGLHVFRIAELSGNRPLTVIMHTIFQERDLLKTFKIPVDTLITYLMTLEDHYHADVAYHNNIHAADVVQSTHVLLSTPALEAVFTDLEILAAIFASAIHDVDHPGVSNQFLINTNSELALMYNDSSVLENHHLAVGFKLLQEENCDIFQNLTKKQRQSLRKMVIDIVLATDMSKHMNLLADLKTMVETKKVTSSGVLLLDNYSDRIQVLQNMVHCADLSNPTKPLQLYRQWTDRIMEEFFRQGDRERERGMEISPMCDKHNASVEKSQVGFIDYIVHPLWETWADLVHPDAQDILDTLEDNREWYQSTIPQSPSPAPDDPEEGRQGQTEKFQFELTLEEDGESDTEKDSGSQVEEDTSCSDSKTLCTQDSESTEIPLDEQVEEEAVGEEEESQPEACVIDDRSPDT
hPDE10A, sequence (Q9Y233 290-1055 limits assumed): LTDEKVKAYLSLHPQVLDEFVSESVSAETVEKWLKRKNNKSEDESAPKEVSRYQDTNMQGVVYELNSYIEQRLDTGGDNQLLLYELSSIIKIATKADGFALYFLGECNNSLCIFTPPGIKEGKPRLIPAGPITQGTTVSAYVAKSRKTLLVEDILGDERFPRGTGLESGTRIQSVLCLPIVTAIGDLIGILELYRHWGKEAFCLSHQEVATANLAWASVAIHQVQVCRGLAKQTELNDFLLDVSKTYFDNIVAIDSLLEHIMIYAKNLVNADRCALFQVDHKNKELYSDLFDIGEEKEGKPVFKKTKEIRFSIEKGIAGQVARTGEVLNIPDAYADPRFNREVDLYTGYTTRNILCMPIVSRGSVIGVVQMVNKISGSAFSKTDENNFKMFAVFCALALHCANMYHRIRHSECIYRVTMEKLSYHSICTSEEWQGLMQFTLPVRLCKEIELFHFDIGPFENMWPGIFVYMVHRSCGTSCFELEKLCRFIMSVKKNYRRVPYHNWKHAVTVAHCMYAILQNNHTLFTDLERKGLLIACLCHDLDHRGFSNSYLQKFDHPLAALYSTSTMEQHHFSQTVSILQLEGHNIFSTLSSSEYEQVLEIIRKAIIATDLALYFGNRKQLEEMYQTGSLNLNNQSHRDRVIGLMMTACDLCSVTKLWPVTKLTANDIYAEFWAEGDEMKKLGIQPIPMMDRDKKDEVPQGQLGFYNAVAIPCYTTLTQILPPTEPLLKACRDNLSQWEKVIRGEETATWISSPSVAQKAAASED
T2 sequence (Q9NP56 whole entry): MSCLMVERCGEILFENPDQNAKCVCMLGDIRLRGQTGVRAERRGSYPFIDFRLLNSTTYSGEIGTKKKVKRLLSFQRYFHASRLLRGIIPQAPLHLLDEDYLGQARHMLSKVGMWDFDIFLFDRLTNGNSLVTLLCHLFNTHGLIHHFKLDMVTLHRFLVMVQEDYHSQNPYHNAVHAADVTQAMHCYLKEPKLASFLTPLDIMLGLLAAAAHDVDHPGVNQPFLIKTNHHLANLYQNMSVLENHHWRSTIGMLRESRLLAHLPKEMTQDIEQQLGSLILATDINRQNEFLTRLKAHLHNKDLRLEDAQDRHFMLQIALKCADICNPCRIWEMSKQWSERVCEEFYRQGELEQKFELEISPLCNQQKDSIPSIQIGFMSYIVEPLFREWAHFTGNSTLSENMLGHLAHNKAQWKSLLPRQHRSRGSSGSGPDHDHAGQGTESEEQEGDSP
T1 sequence (O95263 whole entry): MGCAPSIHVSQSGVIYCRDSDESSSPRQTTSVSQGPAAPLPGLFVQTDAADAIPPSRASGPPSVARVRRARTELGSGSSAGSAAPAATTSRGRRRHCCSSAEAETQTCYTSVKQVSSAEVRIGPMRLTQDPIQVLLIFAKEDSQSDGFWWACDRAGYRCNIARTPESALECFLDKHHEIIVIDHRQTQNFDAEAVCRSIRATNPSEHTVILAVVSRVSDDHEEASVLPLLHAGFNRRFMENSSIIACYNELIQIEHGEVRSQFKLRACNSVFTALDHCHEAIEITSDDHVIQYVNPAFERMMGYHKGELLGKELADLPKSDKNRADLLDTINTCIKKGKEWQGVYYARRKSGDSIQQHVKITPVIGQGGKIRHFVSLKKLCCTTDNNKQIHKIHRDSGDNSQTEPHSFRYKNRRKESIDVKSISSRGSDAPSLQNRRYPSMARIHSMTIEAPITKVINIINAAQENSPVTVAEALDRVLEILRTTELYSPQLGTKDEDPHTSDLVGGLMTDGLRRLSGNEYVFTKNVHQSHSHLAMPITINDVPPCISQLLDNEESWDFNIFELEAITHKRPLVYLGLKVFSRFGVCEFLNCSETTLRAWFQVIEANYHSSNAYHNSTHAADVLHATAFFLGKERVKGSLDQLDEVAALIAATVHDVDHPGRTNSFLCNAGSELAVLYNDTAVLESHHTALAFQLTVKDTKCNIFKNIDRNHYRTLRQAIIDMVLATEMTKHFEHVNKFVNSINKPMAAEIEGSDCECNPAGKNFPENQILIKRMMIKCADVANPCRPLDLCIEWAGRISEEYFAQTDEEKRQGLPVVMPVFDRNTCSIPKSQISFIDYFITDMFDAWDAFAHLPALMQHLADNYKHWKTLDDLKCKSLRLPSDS

SMILES	IC50 (hPDE8B) [µM]	IC50 (Human PDE7B (hPDE7B)) [µM]	inhibition at 1 µM (hPDE4D; at 1 μmol/L, read-out: inhibition rate (%) at prescribed concentration, PDE4) [%]	IC50 (hPDE10A) [µM]	IC50 (hPDE4D) [µM]	inhibition at 10 µM (hPDE4D; [1]) [%]	inhibition at 10 µM (hPDE8B; at 10 μmol/L, read-out: inhibition rate (%) at prescribed concentration, PDE8) [%]	inhibition at 10 µM (hPDE10A; [2]) [%]	inhibition at 1 µM (hPDE8B; [3]) [%]	inhibition at 100 µM (hPDE10A; at 100 μmol/L, read-out: inhibition rate (%) at prescribed concentration, PDE10) [%]
CC1CCC(C(F)(F)F)CC1c1nnc2c(N)ncnn12 (racemic) [Example 83, 3-[2-methyl-5-(trifluoromethyl)cyclohexyl][1,2,4]triazolo[3,4-f][1,2,4]triazin-8-amine]	1.33	< 0.01	53	3.04						
CC1CCN(c2nnc3c(N)nccn23)CC1 [Example 28]	3.7	0.09		28.4	4.3					
Nc1nccn2c([C@H]3[C@@H]4CCC[C@@H]43)nnc12 [Example 179, 3-[(1R,5S,6r)-bicyclo[3.1.0]hex-6-yl][1,2,4]triazolo[4,3-a]pyrazin-8-amine]	4	0.08		17.9	4.7					
Nc1ncnc2c1nnn2C1CCCC(C(F)F)C1 (single isomer, unassigned) [Example 200]	0.99	0.03		16.6	0.54					
Nc1nccn2c(C3CCC4CC4C3)nnc12 (single isomer, unassigned) [Example 219, 3-(bicyclo[4.1.0]hept-3-yl) [1,2,4]triazolo[4,3-a]pyrazin-8-amine]	1.2	0.05		4.7	2.1					
CC1CCCCC1n1nnc2c(N)ncnc21 (single isomer, unassigned) [Example 192, 3-(trans-2-methylcyclohexyl)-3H-[1,2,3]triazolo[4,5-d]pyrimidin-7-amine]	4.18	0.04		8.25		45				
Nc1nccn2c(C3CCCC(C(F)(F)F)C3)nnc12 (single isomer, unassigned) [Example 210, 3-[cis-3-(trifluoromethyl)cyclohexyl][1,2,4]triazolo[4,3-a]pyrazin-8-amine]	3.93	0.013		17.7	5.45					
Nc1cccn2c(C3CCCCC3)nnc12 [Example 186, 3-cyclohexyl[1,2,4]triazolo[4,3-a]pyridin-8-amine]		0.46				-5	-1	7		
Nc1ncnn2c(C3CCCC(C(F)(F)F)C3)nnc12 (single isomer, unassigned) [Example 244, 3-[cis-3-(trifluoromethyl)cyclohexyl][1,2,4]triazolo[3,4-f][1,2,4]triazin-8-amine]		< 0.01		52.6	1.6				73	
C[C@H]1C[C@H](n2nnc3c(N)ncnc32)CC(C)(C)C1 (racemic) [Example 109, 3-(trans-3,3,5-trimethylcyclohexyl)-3H-[1,2,3]triazolo[4,5-d]pyrimidin-7-amine]	12.9	0.04			99.2					24
C[C@H]1CC[C@H](c2nnc3c(N)nccn32)CC1 [Example 149, 3-(trans-4-methylcyclohexyl) [1,2,4]triazolo[4,3-a]pyrazin-8-amine]	1.66	0.04			2.2			46		
Nc1nccn2c([C@@H]3C[C@@H]4[C@H](C3)C4(F)F)nnc12 [Example 160]		0.08		34.9	3.41				54	
CN1CCC[C@H](n2nnc3c(N)ncnc32)C1 [Example 135, 3-[(3S)-1-methylpiperidin-3-yl]-3H-[1,2,3]triazolo[4,5-d]pyrimidin-7-amine]	9.41	0.31				17		22		
CC1CCCC(n2nnc3c(N)ncnc32)C1 (single isomer, unassigned) [Example 196, 3-(cis-3-methylcyclohexyl)-3H-[1,2,3]triazolo[4,5-d]pyrimidin-7-amine]	0.29	< 0.01			2.49			49		
CC1CCC(C)N(c2nnc3c(N)nccn23)C1 (single isomer, unassigned) [Example 232, 3-(2,5-dimethylpiperidin-1-yl) [1,2,4]triazolo[4,3-a]pyrazin-8-amine]	4.6	0.003		0.35	1.4					
CC1CCC(C)(C)CN1c1nnc2c(N)nccn12 (single isomer, unassigned) [Example 236, 3-(2,5,5-trimethylpiperidin-1-yl) [1,2,4]triazolo[4,3-a]pyrazin-8-amine]	0.86	0.033		0.16	0.036					
Nc1nccn2c([C@H]3C[C@@H](C(F)(F)F)CCC3(F)F)nnc12 (racemic) [Example 172, 3-[cis-2,2-difluoro-5-(trifluoromethyl)cyclohexyl][1,2,4]triazolo[4,3-a]pyrazin-8-amine]	9	< 0.01		21.8	5.9					
Nc1ncnc2c1nnn2C1CCCCC1(F)F (single isomer, unassigned) [Example 115, 3-(2,2-difluorocyclohexyl)-3H-[1,2,3]triazolo[4,5-d]pyrimidin-7-amine]		< 0.01		12.3	11.9				52	
CC1CCN(c2nnc3c(N)nccn23)C(C)C1 (racemic) [Example 62, 3-(2,4-dimethylpiperidin-1-yl) [1,2,4]triazolo[4,3-a]pyrazin-8-amine]	21.3	0.04		7.1	4.3					
CC1CCC(F)(F)CC1c1nnc2c(N)nccn12 (single isomer, unassigned) [Example 175, 3-(cis-5,5-difluoro-2-methylcyclohexyl) [1,2,4]triazolo[4,3-a]pyrazin-8-amine]	19.5	< 0.01		1.9	14.9					
Nc1ncnc2c1nnn2C1CCCCC1F (single isomer, unassigned) [Example 195, 3-(cis-2-fluorocyclohexyl)-3H-[1,2,3]triazolo[4,5-d]pyrimidin-7-amine]	1.41	0.05		30.6	5.7					
Nc1ncnc2c1nnn2[C@@H]1CCCOC1 [Example 90]		0.12		19	3.7				59	
CC1(C)CCCN(c2nnc3c(N)nccn23)C1 [Example 26, 3-(3,3-dimethylpiperidin-1-yl) [1,2,4]triazolo[4,3-a]pyrazin-8-amine]	7.66	0.02		21.1	4.59					
